Data reported in PubChem BioAssay AID2060903 (Molecular Pharmacology Branch, DTP, NCI, 2025).

System: 377384-186-R-J1-PDC complex spheroid viability
Test: Anticancer human tumor 377384-186-R-J1-PDC patient-derived pancreatic carcinoma cell line growth inhibition [RAS]
Settings: for IC50: curve of first compound; for viability, T/C: stronger effect = lower value
Summary of the method: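 Tumour cells grown as complex spheroids with HUVEC endothelial cells and mesenchymal stem cells, treated with RAS pathway inhibitor combinations. Each agent spans half-log steps from near clinical Cmax, or 10 microM where Cmax is unknown.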
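Note: spheroids exposed to compounds for seven days before readout.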

CC(C)NCC(C(=O)N1CCN(c2ncnc3c2C(C)CC3O)CC1)c1ccc(Cl)cc1 (centres undefined) + C#Cc1c(F)ccc2cc(O)cc(-c3ncc4c(N5CC6CCC(C5)N6)nc(OCC56CCCN5CC(F)C6)nc4c3F)c12
IC50 (second compound 0.0316 µM): < 31.6 nM | IC50 (second compound 0.1 µM): < 31.6 nM | IC50 (second compound 0.316 µM): < 31.6 nM | IC50 (second compound 1 µM): < 31.6 nM | IC50 (second compound 3.16 µM): < 31.6 nM | IC50 (second compound 10 µM): < 31.6 nM | viability, T/C (second compound 0.0316 µM, first compound 0.0316 µM): 22.6% | viability, T/C (second compound 0.0316 µM, first compound 0.1 µM): 18.8% | viability, T/C (second compound 0.0316 µM, first compound 0.316 µM): 18.2% | viability, T/C (second compound 0.0316 µM, first compound 1 µM): 16.9% | viability, T/C (second compound 0.0316 µM, first compound 3.16 µM): 11% | viability, T/C (second compound 0.0316 µM, first compound 10 µM): 9.91% | viability, T/C (second compound 0.1 µM, first compound 0.0316 µM): 10.2% | viability, T/C (second compound 0.1 µM, first compound 0.1 µM): 10.5% | viability, T/C (second compound 0.1 µM, first compound 0.316 µM): 8.54% | viability, T/C (second compound 0.1 µM, first compound 1 µM): 9.68% | viability, T/C (second compound 0.1 µM, first compound 3.16 µM): 6.47% | viability, T/C (second compound 0.1 µM, first compound 10 µM): 3.99% | viability, T/C (second compound 0.316 µM, first compound 0.0316 µM): 4.76% | viability, T/C (second compound 0.316 µM, first compound 0.1 µM): 4.25% | viability, T/C (second compound 0.316 µM, first compound 0.316 µM): 5.02% | viability, T/C (second compound 0.316 µM, first compound 1 µM): 3.37% | viability, T/C (second compound 0.316 µM, first compound 3.16 µM): 3.87% | viability, T/C (second compound 0.316 µM, first compound 10 µM): 3.34% | viability, T/C (second compound 1 µM, first compound 0.0316 µM): 3.41% | viability, T/C (second compound 1 µM, first compound 0.1 µM): 17.1% | viability, T/C (second compound 1 µM, first compound 0.316 µM): 2.83% | viability, T/C (second compound 1 µM, first compound 1 µM): 2.26% | viability, T/C (second compound 1 µM, first compound 3.16 µM): 1.72% | viability, T/C (second compound 1 µM, first compound 10 µM): 1.05% | viability, T/C (second compound 3.16 µM, first compound 0.0316 µM): 2.28% | viability, T/C (second compound 3.16 µM, first compound 0.1 µM): 2.34% | viability, T/C (second compound 3.16 µM, first compound 0.316 µM): 1.81% | viability, T/C (second compound 3.16 µM, first compound 1 µM): 1.19% | viability, T/C (second compound 3.16 µM, first compound 3.16 µM): 1.15% | viability, T/C (second compound 3.16 µM, first compound 10 µM): 0.64% | viability, T/C (second compound 10 µM, first compound 0.0316 µM): 1.35% | viability, T/C (second compound 10 µM, first compound 0.1 µM): 1.29% | viability, T/C (second compound 10 µM, first compound 0.316 µM): 0.78% | viability, T/C (second compound 10 µM, first compound 1 µM): 0.79% | viability, T/C (second compound 10 µM, first compound 3.16 µM): 0.61% | viability, T/C (second compound 10 µM, first compound 10 µM): 0.18%

CCc1c2c(nc3ccc(O)cc13)-c1cc3c(c(=O)n1C2)COC(=O)[C@]3(O)CC + C#Cc1c(F)ccc2cc(O)cc(-c3ncc4c(N5CC6CCC(C5)N6)nc(OCC56CCCN5CC(F)C6)nc4c3F)c12
IC50 (second compound 0.0316 µM): < 0.949 nM | IC50 (second compound 0.1 µM): < 0.949 nM | IC50 (second compound 0.316 µM): < 0.949 nM | IC50 (second compound 1 µM): < 0.949 nM | IC50 (second compound 3.16 µM): < 0.949 nM | IC50 (second compound 10 µM): < 0.949 nM | viability, T/C (second compound 0.0316 µM, first compound 0.000949 µM): 19.9% | viability, T/C (second compound 0.0316 µM, first compound 0.003 µM): 11.3% | viability, T/C (second compound 0.0316 µM, first compound 0.00949 µM): 6.54% | viability, T/C (second compound 0.0316 µM, first compound 0.03 µM): 4.38% | viability, T/C (second compound 0.0316 µM, first compound 0.0949 µM): 1.63% | viability, T/C (second compound 0.0316 µM, first compound 0.3 µM): 1.45% | viability, T/C (second compound 0.1 µM, first compound 0.000949 µM): 10.2% | viability, T/C (second compound 0.1 µM, first compound 0.003 µM): 5.47% | viability, T/C (second compound 0.1 µM, first compound 0.00949 µM): 3.3% | viability, T/C (second compound 0.1 µM, first compound 0.03 µM): 2.38% | viability, T/C (second compound 0.1 µM, first compound 0.0949 µM): 1.62% | viability, T/C (second compound 0.1 µM, first compound 0.3 µM): 1.48% | viability, T/C (second compound 0.316 µM, first compound 0.000949 µM): 4.45% | viability, T/C (second compound 0.316 µM, first compound 0.003 µM): 3.34% | viability, T/C (second compound 0.316 µM, first compound 0.00949 µM): 2.87% | viability, T/C (second compound 0.316 µM, first compound 0.03 µM): 1.65% | viability, T/C (second compound 0.316 µM, first compound 0.0949 µM): 1.51% | viability, T/C (second compound 0.316 µM, first compound 0.3 µM): 1.36% | viability, T/C (second compound 1 µM, first compound 0.000949 µM): 3.89% | viability, T/C (second compound 1 µM, first compound 0.003 µM): 2.04% | viability, T/C (second compound 1 µM, first compound 0.00949 µM): 2.4% | viability, T/C (second compound 1 µM, first compound 0.03 µM): 1.31% | viability, T/C (second compound 1 µM, first compound 0.0949 µM): 1.14% | viability, T/C (second compound 1 µM, first compound 0.3 µM): 1.05% | viability, T/C (second compound 3.16 µM, first compound 0.000949 µM): 1.66% | viability, T/C (second compound 3.16 µM, first compound 0.003 µM): 2.07% | viability, T/C (second compound 3.16 µM, first compound 0.00949 µM): 2.02% | viability, T/C (second compound 3.16 µM, first compound 0.03 µM): 1.73% | viability, T/C (second compound 3.16 µM, first compound 0.0949 µM): 1.46% | viability, T/C (second compound 3.16 µM, first compound 0.3 µM): 0.91% | viability, T/C (second compound 10 µM, first compound 0.000949 µM): 1.73% | viability, T/C (second compound 10 µM, first compound 0.003 µM): 0.98% | viability, T/C (second compound 10 µM, first compound 0.00949 µM): 1.39% | viability, T/C (second compound 10 µM, first compound 0.03 µM): 1.15% | viability, T/C (second compound 10 µM, first compound 0.0949 µM): 0.97% | viability, T/C (second compound 10 µM, first compound 0.3 µM): 0.48%
